Laboratory results from patent US20150237877A1, “METHODS OF HANDLING PERSIMMONS” (AGROFRESH INC., priority 2012, published 2015).

Tests used:
Type in all cases: in vivo, Persimmon (Diasoyros kaki)
persimmons, variety Fuyu = experiment: Example 3: pulp firmness of persimmons, MCP before storage; conditions: for Pulp Firmness, Days 0 / Pulp Firmness, Days 3 / Pulp Firmness, Days 6: 500 ppb of MCP; for Pulp Firmness, Days 0: Day 0 after 60 days cold storage; for Pulp Firmness, Days 3: Day 3 after 60 days cold storage; for Pulp Firmness, Days 6: Day 6 after 60 days cold storage
Protocol: Persimmons are harvested in Madera—Calif. —USA and packed in cardboard boxes and shipped to Davis—Calif. At the same day of harvest part of the persimmons are packed in MAP bags. • Location: USA • Variety: Fuyu (non astringent, doesn't need ethanol application, ready to eat after harvest) • Storage at 0° C. for 60 days • MCP application before the storage • MAP Bag: Amcor bag type 30EF90.
The Amcor bag type 30EF90 has dimensions of 39.5″ (100.3 cm) wide and 35″ (88.9 cm) long. The bag is not perforated and has 25 microns thickness with an oxygen (O2) permeability of 6750 cc/[m^2 day]. The OTR of the bag is calculated to be 7560 cm^3/day.
(§1) The Test Protocol is as follows. 4 MAP bags are packed. Each bag holds approximately 10 kg (22.5 lb) of persimmons. One such bag is packed in each RPC (Recycle Plastic Container). Total weight of persimmons in MAP bags is approximately 40 kg. Approximately 40 kg of persimmons are placed into RPC identical to those used for the MAP bags.
The MAP-packaged persimmons are packaged as follows: 80 fruits, approximately 10 kg were carefully placed into microperforated bags, and the bags are sealed by twisting the open side of the bag, folding down the twisted end, and placing a rubber band around the twisted and folded end of the bag.
The appropriate weight of persimmons is placed in each bag after harvest and shipment. Bags are placed in RPC carrying devices. Persimmons then are moved to a Cold Room at 0° C.
(§2) On the same day the persimmons are bagged, each treatment set is marked, placed in a hermetical chamber at the Cold Room. All chambers are of equal size and packed the same way. Treatment lasts for 12 hours. In the chambers for the “MCP” treatment groups, at the beginning of the treatment period, SmartTabs™ tablets are placed in the chamber. The amount of SmartTab™ tablets is chosen to achieve the indicated concentration of 1-methylcyclopropene in the atmosphere of the chamber.
After 60 days of storage at Cold Room, the bags are removed and the RPCs are moved into racks at room temperature for storage and observation.
Evaluation firmness is as follows. Day “zero” is the day the persimmons are removed from the cold storage.
(§3) For the Pulp Firmness evaluation, the persimmons have the skin removed with a peeler and the pulp firmness is measured with a Firmness Texture Analyzer (FTA) with a probe of 8 mm.

[1] = system: persimmons, variety Rojo Brillante; experiment: Example 4: pulp firmness of persimmons, MCP before storage, CO2 astringency removal after storage; conditions: cold storage, then room temperature for 7 days, MCP 600 ppb where applied
Protocol: Persimmons are harvested in Valencia—Spain and in the packing house part of the fruits are packed in plastic boxes and the other part is packed in MAP bags. • Location: Spain • Variety: Rojo Brillante (astringent, need CO2 application, ready to eat after astringency removal process) • Storage at 0° C. for 72 days • MCP application before the storage • MAP Bag: PE/EVA OP and Nylon bag with dimensions of 27″ (68.6 cm) width by 28″ (71.1 cm) length made from Kenylon 6250 Polyamide Film available from FM • Packaging
The Test Protocol is as follows. • a. PE/EVA OP Bags: 3 kg (6.6 lb) of fruits per bag, 5 bags per box and 6 RPC boxes • b. PE/EVA 8P Bags: 1 kg (2.2 lb) of fruits per bag, 15 bags per box and 6 RPC boxes • c. Nylon 0.2 and 0.35: 10 kg (22.5 lb) of fruits per bag, 2 bag per box and 6 RPC boxes • d. No Bag: 20 kg of fruits per box and 6 RPC boxes
The MAP-packaged persimmons are packaged as follows: fruits are carefully placed into microperforated bags, and the bags are sealed by twisting the open side of the bag, folding down the twisted end, and placing a rubber band around the twisted and folded end of the bag.
The appropriate weight of persimmons is placed in each bag after harvest and shipment. […]
For the Pulp Firmness evaluation, the persimmons have the skin removed with a peeler and the pulp firmness is measured with a Manual Penetrometer with a probe of 8 mm.

persimmons = experiment: Example 2: pulp firmness of persimmons, 1-MCP and ethanol before storage; conditions: for Pulp Firmness, Day 0 / Pulp Firmness, Day 1 / Pulp Firmness, Day 4 / Pulp Firmness, Day 7 / Pulp Firmness, Day 10: 1000 ppb of MCP
Source text: This Example uses a similar test to Example 1 but with the ethanol application before the storage, at the same time as 1-MCP application.
Persimmons are harvested in Mogi das Cruzes—SP—Brazil and packed in RPC (Recycle Plastic Container) and shipped to Piracicaba—SP. At the same day of harvest part of the persimmons are packed in MAP bags.
as §1, with “16” for “10”, “(36” for “(22.5”, “RPC.” for “RPC (Recycle Plastic Container).”, “64” for “40”
(§4) The MAP-packaged persimmons are packaged as follows: 80 fruits, approximately 16 kg are carefully placed into microperforated bags, and the bags are sealed by twisting the open side of the bag, folding down the twisted end, and placing a rubber band around the twisted and folded end of the bag.
(§5) The appropriate weight of persimmons is placed in each bag after harvest and shipment. Bags are placed in RPC carrying devices. Persimmons are moved to a Cold Room at 12° C. next.
On the same day the persimmons are bagged, each treatment set is marked, placed in a hermetical chamber at the Cold Room. All chambers are of equal size and packed the same way. Treatment lasts for 12 hours. In the chambers for the “MCP” treatment groups, at the beginning of the treatment period, SmartTabs™ tablets are placed in the chamber. The amount of SmartTab™ tablets is chosen to achieve the indicated concentration of 1-methylcyclopropene in the atmosphere of the chamber. At the same time the persimmons are exposed to ethanol with the purpose of removing the astringency (3.5 mL/kg of fruit).
After the storage at Cold Room, the bags are removed and the RPCs are moved into racks at room temperature for storage and observation.
Evaluation firmness is as follows. Day “zero” is the day the persimmons are harvested and Day “one” is the day the persimmons are removed from the cold storage.
as §3

[2] = system: persimmons, variety Giombo; experiment: Example 1: pulp firmness of persimmons, MCP before storage, ethanol after storage; conditions: for Pulp Firmness, Day 0 / Pulp Firmness, Day 1 / Pulp Firmness, Day 4: 1000 ppb of MCP
Protocol: Persimmons are harvested in Mogi das Cruzes—SP—Brazil and packed in RPC (Recycle Plastic Container) and shipped to Piracicaba—SP. At the same day of harvest part of the persimmons are packed in MAP bags. • Location: Brazil • Variety: Giombo (astringent and need to be treated with ethanol to be ready to eat) • Storage at 12° C. for 15 days • MAP Bag: a Nylon bag with dimensions of 27″ (68.6 cm) width by 28″ (71.1 cm) length made from Kenylon 6250 Polyamide Film available from FM Packaging. • MCP application before the storage • Ethanol Application after the storage
For the MAP bag used, the base film has 25 microns thickness without laser holes. The oxygen (O2) permeation of the MAP bag used is about 28 cc/m^2-day and the CO2 permeation is about 227 cc/m^2-day. The bags are laser drilled in the length direction with 105 micron holes at two locations 9″ (22.9 cm) from each side of the bag. The hole spacing is 9.06 mm. The total number of laser holes in the 20″ (8″ for tie off) length direction of the bag are about 228 holes. At an average hole diameter of 105 micron (pi×r^2=8630 micron^2), the 228 holes can provide an open area of ˜2.0 mm^2. The OTR of the bag is calculated to be 32,250 cm^3/day.
as §1, with “16” for “10”, “(36” for “(22.5”, “RPC.” for “RPC (Recycle Plastic Container).”, “64” for “40”
as §4, §5, §2
Persimmons used in this trial are an astringent variety. To remove the astringency the fruits were treated with ethanol after the 15 days at cold storage.
After removed the bags for the MAP bag groups, all the fruits are placed in a hermetical chamber and treated with ethanol (3.5 mL/kg of fruit) for 12 hours.
After the treatment in the chambers, the RPCs are moved into racks at room temperature for storage and observation.
Firmness evaluation is as follows. Day “zero” was the day the persimmons are harvested and Day “one” is the day the persimmons are removed from the ethanol treatment.
as §3

[3] = Day 0 = day of harvest, MCP 1000 ppb where applied

Compound: CC1=CC1 [SmartFresh, 1-methylcyclopropene]
- Firmness results, d60 + 3 day (persimmons, variety Fuyu; 60 days at 0° C. + 3 days at room temperature, MCP 500 ppb where applied): 9.1 lbf
- Firmness results, d60 + 6 day (persimmons, variety Fuyu; 60 days at 0° C. + 6 days at room temperature, MCP 500 ppb where applied): 6.7 lbf
- Firmness results, d60 + 0 day (persimmons, variety Fuyu; 60 days at 0° C., day removed from the cold storage, MCP 500 ppb where applied): 7.9 lbf
- Pulp Firmness, Days 0 (persimmons, variety Fuyu; Bag MAP (Amcor)): 11.1 lbf
- Pulp Firmness, Days 3 (persimmons, variety Fuyu; Bag MAP (Amcor)): 10.0 lbf
- Pulp Firmness, Days 6 (persimmons, variety Fuyu; Bag MAP (Amcor)): 9.9 lbf
- Pulp Firmness, Days 0 (persimmons, variety Fuyu; No Bag): 7.9 lbf
- Pulp Firmness, Days 3 (persimmons, variety Fuyu; No Bag): 9.1 lbf
- Pulp Firmness, Days 6 (persimmons, variety Fuyu; No Bag): 6.7 lbf
- Firmness difference (Δ) as compared to the control group, d60 + 6 day (persimmons, variety Fuyu; d60 + 6 day): 6.2 lbf
- firmness provided to the persimmons / maintained higher than the untreated fruits (persimmons, variety Fuyu; in vivo): 6.2 lbf
- Firmness [1]: 3.33 kg
- Δ, difference between the firmness for the treatment and the firmness for the No Bag treatment [1]: 1.33 kg
- Pulp Firmness, Day 0 (persimmons; Bag MAP): 20.99 lbf
- Pulp Firmness, Day 1 (persimmons; Bag MAP, Day 1): 18.16 lbf
- Pulp Firmness, Day 4 (persimmons; Bag MAP, Day 4): 16.94 lbf
- Pulp Firmness, Day 7 (persimmons; Bag MAP): 15.84 lbf
- Pulp Firmness, Day 10 (persimmons; Bag MAP): 14.23 lbf
- Firmness results, Day 0 (persimmons; [3]): 20.99 lbf
- Firmness difference (Δ) as compared to the control group, Day 1 (persimmons; Day 1): 0.15 lbf
- Firmness results, Day 1 (persimmons; Day 1 = day removed from the cold storage (12° C.), MCP 1000 ppb where applied): 16.65 lbf
- Firmness difference (Δ) as compared to the control group, Day 4 (persimmons; Day 4): −0.39 lbf
- Firmness results, Day 4 (persimmons; Day 4, room temperature after cold storage, MCP 1000 ppb where applied): 14.74 lbf
- Pulp Firmness, Day 0 (persimmons; No Bag): 20.99 lbf
- Pulp Firmness, Day 1 (persimmons; No Bag, Day 1): 17.87 lbf
- Pulp Firmness, Day 4 (persimmons; No Bag, Day 4): 15.09 lbf
- Pulp Firmness, Day 7 (persimmons; No Bag): 13.70 lbf
- Pulp Firmness, Day 10 (persimmons; No Bag): 12.62 lbf
- firmness provided to the persimmons (persimmons; after 7 day at room temperature): 1.55 lbf
- Pulp Firmness, Day 0 ([2]; Bag MAP): 20.99 lbf
- Pulp Firmness, Day 1 ([2]; Bag MAP): 18.62 lbf
- Pulp Firmness, Day 4 ([2]; Bag MAP, Day 4): 18.18 lbf
- Firmness results, Day 0 [2, 3]: 20.99 lbf
- Firmness results, Day 1 ([2]; Day 1 = day removed from ethanol treatment, after 15 days at 12° C., MCP 1000 ppb where applied): 17.87 lbf
- Firmness difference (Δ) as compared to the control group, Day 4 ([2]; Day 4): 0.89 lbf
- Firmness results, Day 4 ([2]; Day 4, room temperature after 15 days at 12° C. and ethanol, MCP 1000 ppb where applied): 15.09 lbf
- Firmness difference (Δ) as compared to the control group, Day 7 ([2]; Day 7): 1.55 lbf
- Firmness results, Day 7 ([2]; Day 7, room temperature after 15 days at 12° C. and ethanol, MCP 1000 ppb where applied): 13.70 lbf
- Firmness results, Day 10 ([2]; Day 10, room temperature after 15 days at 12° C. and ethanol, MCP 1000 ppb where applied): 12.62 lbf
- Pulp Firmness, Day 0 ([2]; No Bag): 20.99 lbf
- Pulp Firmness, Day 1 ([2]; No Bag): 16.65 lbf
- Pulp Firmness, Day 4 ([2]; No Bag, Day 4): 14.74 lbf
- firmness provided to the persimmons ([2]; after 1 day at room temperature): 0.15 lbf
